The target of one assay is human CB1 (hCB1) (Homo sapiens, UniProt P21554). In words: [3H]CP55,940 displacement binding at hCB1 membranes.
A further assay addresses human CB2 (hCB2) (Homo sapiens, UniProt P34972). In words: [3H]CP55,940 displacement binding at hCB2 membranes.
The next assay relates to male C57BL/6 inbred mice. Put plainly: THC drug discrimination. Type of assay: in vivo. As to conditions: for Effect on response rate: compared to vehicle; for ED50: Mus musculus, ip, read-out: ED50 for substitution in THC discrimination; for ED50 for substitution in THC discrimination: mice trained with 5.6 mg/kg THC i.p., value (95% confidence limits).
The target in another assay is hCB1 receptor (Homo sapiens, UniProt P21554). Put plainly: Agonist-stimulated [35S]GTPγS binding, hCB1 membranes. As to conditions: for Emax: read-out: [35S]GTPγS Turnover CB1 Emax. On the technique in general: GTPγS is a poorly hydrolysed GTP analogue; its binding reports G protein activation.
A further assay concerns the target hCB2 receptor (Homo sapiens, UniProt P34972). In words: Agonist-stimulated [35S]GTPγS binding, hCB2 membranes. As to conditions: for Emax: read-out: [35S]GTPγS Turnover CB2 Emax.
Another assay concerns the target CB1 receptors. As to conditions: read-out: CB1 affinity; rat CB1 receptors ref Huffman et al., 2005; cited from earlier work.

The structures appear in SMILES notation. Where “and” joins values, the source holds several entries; their conditions need not be identical. Identical values can stand only once. Like-named read-outs stand apart in the source and are kept apart here.

hCB2 receptor, sequence (P34972 whole entry): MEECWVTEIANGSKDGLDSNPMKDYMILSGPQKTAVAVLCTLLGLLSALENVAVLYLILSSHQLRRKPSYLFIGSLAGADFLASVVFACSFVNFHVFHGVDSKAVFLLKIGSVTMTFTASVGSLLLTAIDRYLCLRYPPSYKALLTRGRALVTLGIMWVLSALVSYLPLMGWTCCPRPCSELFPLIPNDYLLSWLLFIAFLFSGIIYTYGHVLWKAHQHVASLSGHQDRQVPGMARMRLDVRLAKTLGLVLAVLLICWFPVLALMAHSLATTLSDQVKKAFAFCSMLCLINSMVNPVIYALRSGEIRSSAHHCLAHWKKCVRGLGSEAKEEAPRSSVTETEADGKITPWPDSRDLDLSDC
human CB2 (hCB2), sequence (P34972 whole entry): as above
human CB1 (hCB1), sequence (P21554 whole entry): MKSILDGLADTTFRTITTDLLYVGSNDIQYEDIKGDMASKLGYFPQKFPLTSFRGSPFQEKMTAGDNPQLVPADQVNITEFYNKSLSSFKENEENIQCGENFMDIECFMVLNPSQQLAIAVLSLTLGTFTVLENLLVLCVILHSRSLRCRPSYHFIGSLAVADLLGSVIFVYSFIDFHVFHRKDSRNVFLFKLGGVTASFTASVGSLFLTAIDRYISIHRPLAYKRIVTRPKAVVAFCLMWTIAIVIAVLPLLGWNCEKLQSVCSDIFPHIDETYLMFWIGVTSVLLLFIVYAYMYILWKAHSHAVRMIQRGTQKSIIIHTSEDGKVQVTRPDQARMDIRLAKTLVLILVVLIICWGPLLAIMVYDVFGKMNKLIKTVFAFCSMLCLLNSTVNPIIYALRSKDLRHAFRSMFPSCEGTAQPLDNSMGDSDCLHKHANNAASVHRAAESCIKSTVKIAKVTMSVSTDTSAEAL
hCB1 receptor, sequence (P21554 whole entry): as above

As a reminder, the ED50 is the dose at which the effect has come halfway, by size or by number of responders. By EC50 is commonly meant the concentration that produces a half-maximal response. The Emax is the greatest response seen or fitted, relative to the assay's reference. At human CB1 (hCB1), `Cc1ccc(C(=O)c2cn(CCCCCF)c3ccccc23)c2ccccc12` [MAM-2201, (1-(5-fluoropentyl)-1H-indol-3-yl)(4-methyl-1-naphthalenyl)-methanone] had a Ki of 1.86 nM. The compound also showed a Ki at human CB2 (hCB2) of 0.59 nM. Moreover, in the assay on male C57BL/6 inbred mice (0.3 mg/kg), the “Substitution for THC in drug discrimination” value (“Substitution for THC” for short) is given as “full substitution” and the “Effect on response rate” value is on record as “reductions in response rates”. Further, the ED50 in the assay on male C57BL/6 inbred mice came out at 0.11 µmol/kg. At hCB1 receptor, it took 36.1 nM to reach a half-maximal effect (EC50) and the maximum response (Emax) stood at 310%. Moreover, at hCB2 receptor, the EC50 turned out to be 1.93 nM and the Emax is 23.2%. Besides, on hCB2 receptor (more potent than CP55,940), the “Potency for stimulating [35S]GTPγS turnover at CB2 relative to CP55,940” value was “approximately 4 fold”.
As to `CCc1ccc(C(=O)c2cn(CCCCCF)c3ccccc23)c2ccccc12` [EAM-2201, (4-ethyl-1-naphthalenyl)[1-(5-fluoropentyl)-1H-indol-3-yl]-methanone], the Ki at human CB1 (hCB1) amounted to 0.41 nM; on human CB2 (hCB2), 0.38 nM. Also, the ED50 in the assay with male C57BL/6 inbred mice stood at 0.04 µmol/kg. In addition, the “Effect on response rate” value in the assay with male C57BL/6 inbred mice (across the dose range tested) is “no doses produced significant differences from vehicle”. The concentration for a half-maximal effect (EC50) came out at 46.8 nM on hCB1 receptor and 91.9 nM at hCB2 receptor. In addition, the values for the Emax on hCB1 receptor and at hCB2 receptor were 270% and 40.2%, respectively.
On human CB2 (hCB2), `CCCCCn1cc(C(=O)c2ccc(CC)c3ccccc23)c2ccccc21` [JWH-210, 4-ethylnaphthalen-1-yl-(1-pentylindol-3-yl)methanone] returned a Ki of 0.94 nM. In the assay on male C57BL/6 inbred mice, the ED50 worked out at 0.33 µmol/kg. Also, on hCB1 receptor, the concentration for a half-maximal effect (EC50) is 116 nM and the Emax is 287%. Also, at hCB2 receptor, the EC50 amounted to 51 nM and the maximum response (Emax) was found to be 43.6%.
Take `CCCCCn1cc(C(=O)Cc2ccccc2C)c2ccccc21` [JWH-251, 2-(2-methylphenyl)-1-(1-pentyl-1H-indol-3-yl)ethenone]: the Ki at human CB1 (hCB1) (read-out: CB1 Ki, [3H]CP55,940 displacement, hCB1, value (SEM)) is 16 nM and 16.2 nM; at human CB2 (hCB2) (read-out: CB2 Ki, [3H]CP55,940 displacement, hCB2, value (SEM)), 15 nM and 15.1 nM; at CB1 receptors it was 29 ± 3 nM. For the same compound, in the assay on male C57BL/6 inbred mice, the “ED50 for substitution in THC discrimination” value (shortened to “ED50 for substitution”) was 4.07 (3.11-5.31) μmol/kg. The “[35S]GTPγS Turnover CB1 Emax” value on hCB1 receptor (% maximal increase over basal, hCB1, value (SEM)) was 227.6 (31.6) 3%. Moreover, the 50% effective concentration (EC50) at hCB1 receptor (read-out: [35S]GTPγS Turnover CB1 EC50, hCB1 membranes, value (SEM)) stood at 918 nM; on hCB2 receptor (read-out: [35S]GTPγS Turnover CB2 EC50, hCB2 membranes, value (SEM)) it was 1520 nM.
As for `CCCCCc1cc(O)c2c(c1)OC(C)(C)[C@@H]1CCC(C)=C[C@@H]21` [THC, Δ^9-tetrahydrocannabinol, reference compound], in the assay with male C57BL/6 inbred mice (across the dose range tested), the “Effect on response rate” value is given as “did not alter response rates”. Also, the “ED50 for substitution” value in the assay with male C57BL/6 inbred mice is 4.96 (3.41-7.21) μmol/kg.
For `CCCCCn1cc(C(=O)c2ccccc2I)c2ccccc21` [AM-679, (2-iodophenyl)(1-pentyl-1H-indol-3-yl)methanone], the Ki is 39.6 nM at human CB1 (hCB1) and 2.1 nM at human CB2 (hCB2). Moreover, the ED50 in the assay with male C57BL/6 inbred mice came out at 5.8 µmol/kg. For the same compound, the 50% effective concentration (EC50) at hCB1 receptor was 881 nM; on hCB2 receptor, 19 nM. In addition, the results for the maximal effect (Emax) on hCB1 receptor and on hCB2 receptor were 132% and 31.1%, respectively.
`CN1CCCCC1Cn1cc(C(=O)c2ccccc2I)c2ccccc21` (stereo not shown) [AM-2233, 1-[(N-methylpiperidin-2-yl)methyl]-3-(2-iodobenzoyl)indole]: the values for the Ki at human CB1 (hCB1) and on human CB2 (hCB2) were 6.63 nM and 0.48 nM, respectively. The ED50 in the assay with male C57BL/6 inbred mice stood at 0.42 µmol/kg. In addition, the EC50 was 213 nM on hCB1 receptor and 715 nM on hCB2 receptor. The Emax at hCB1 receptor is 144%; on hCB2 receptor it was 21%.
Turning to `CN1CCCC[C@@H]1Cn1cc(C(=O)c2cccc3ccccc23)c2ccccc21` [AM-1220, (R)-(1-((1-methylpiperidin-2-yl)methyl)-1H-indol-3-yl)(naphthalen-1-yl)methanone], on human CB2 (hCB2), the Ki is 0.26 nM. Moreover, in the assay with male C57BL/6 inbred mice, the ED50 was found to be 0.26 µmol/kg. The Emax at hCB1 receptor came to 132%. The “[35S]GTPγS Turnover CB2 Emax” value at hCB2 receptor (% maximal increase over basal, hCB2, value (SEM)) is listed as “Not determinable”. In addition, the “[35S]GTPγS Turnover CB2 EC50” value at hCB2 receptor (hCB2 membranes, value (SEM)) is “Not determinable”.
For the compound `N#CCCCCn1cc(C(=O)c2cccc3ccccc23)c2ccccc21` [AM-2232, 5-(3-(1-naphthoyl)-1H-indol-1-yl)pentanenitrile], the Ki at human CB1 (hCB1) was determined as 14.5 nM; on human CB2 (hCB2), 11.2 nM. For the same compound, in the assay on male C57BL/6 inbred mice (1.0 mg/kg), the “Substitution for THC” value is on record as “full substitution”. Besides, the “Effect on response rate” value in the assay on male C57BL/6 inbred mice (1.0 mg/kg) is “reductions in response rates”. Besides, in the assay on male C57BL/6 inbred mice, the ED50 was 0.54 µmol/kg. For the same compound, the EC50 on hCB1 receptor is 833 nM; at hCB2 receptor, 406 nM. For the same compound, the Emax at hCB1 receptor worked out at 204%; at hCB2 receptor, 31.3%.
`CCCCCCC(C)(C)c1ccc(C2CC(O)CCC2CCCO)c(O)c1` (single isomer, unassigned; (-)) [CP55,940, (-)-cis-3-[2-Hydroxy-4-(1,1-dimethylheptyl)phenyl]-trans-4-(3-hydroxypropyl)cyclohexanol, reference compound]: in the assay with male C57BL/6 inbred mice (0.3 mg/kg), the “Substitution for THC” value is on record as “full substitution” and the “Effect on response rate” value is recorded as “reductions in response rates”. Also, the “ED50 for substitution” value in the assay with male C57BL/6 inbred mice is 0.07 (0.04-0.14) μmol/kg.

Source of the values: publication PMC5934329 (Neuropharmacology, 2017).
